Reference: EPA's ToxValDB 9.5
Values joined by “and” are separate entries in the source; they are usually repeats but may differ in a detail not shown here. Equal entries are not always repeated.

Assays:
Rattus norvegicus [1] = settings: subchronic, duration: 13 weeks, oral, diet, Crl
Canidae [2] = settings: subchronic; duration: 13 weeks; oral; diet; Beagle
Mus musculus [3] = settings: acute; injection; intravenous
Rattus norvegicus [4] = tested on: Rattus norvegicus
Canidae [5] = settings: chronic, oral, M/F, Dog Other
Canidae [6] = settings: chronic, oral, Dog Other
Rattus norvegicus [7] = settings: for NOEL / LOEL: Hershberger, oral, gavage; for LEL: uterotrophic, injection, subcutaneous, Active
Rattus norvegicus [8] = assay: LD0; higher = less toxic; settings: acute; oral; gavage; Sprague-Dawley
Canidae [9] = settings: oral, M/F, Beagle
Oryctolagus sp. = settings: acute; dermal
Mus musculus [10] = settings: uterotrophic; duration: 9 days; injection; subcutaneous; Active
[11] = subchronic, duration: 13 weeks, oral, diet
[12] = chronic, duration: 1 years, diet, Increased plasma cholesterol (males)
[13] = duration: 2 years, diet, increased hemosiderin deposition, serum alkaline phosphatase, and liver weight (females)
[14] = subchronic, duration: 3 months, oral, diet, BOR/WISW (SPF Cpb)
[15] = Decreased body weight gain, altered serum chemistry parameters (decreased serum cholesterol, total protein, and serum albumin and globulin …
[16] = duration: 9 months, capsule, Decreased bodyweights, mortality, prostatic malfunction, foci of softening in the brainstem, & testicular atrophy
[17] = duration: 7 days, Sprague-Dawley, active + Antiandrogenic + anti-androgenic + reduced SV and caudal epididymal wt / PPS delayed
[18] = duration: 10 days, Wistar, active + Antiandrogenic + anti-androgenic + reduced SV and caudal epididymal wt / PPS delayed
[19] = duration: 10 days, Sprague-Dawley, active + Negative + Antiandrogenic + anti-androgenic + significant increase in liver wt at 100 / decrease in AST wt and serum Testosterone …

Structure (SMILES): CCCCCCO [1-Hexanol]
- NOAEL (Rattus norvegicus [1]; F): 1240 mg/kg-day
- NOEL (Rattus norvegicus [1]; F): 1240 mg/kg-day
- NOAEL (Rattus norvegicus [1]; M): 1130 mg/kg-day
- NOEL (Rattus norvegicus [1]; M): 1130 mg/kg-day
- LOAEL (% diet) (Canidae [2]): 1
- NOAEL (% diet) (Canidae [2]): > 0.5
- LD50 (Mus musculus [3]): 100 mg/kg
- LC50 (Rattus norvegicus [4]; acute, inhalation): > 21 µg/mL
- NOAEL (Rattus norvegicus [4]; developmental, inhalation, Sprague-Dawley): > 3500 mg/m3
- NOAEL (Rattus norvegicus [4]; reproduction developmental, inhalation, F, Sprague-Dawley): > 3500 mg/m3
- LOAEL (% diet) (Rattus norvegicus [4]; [11]): 1
- NOAEL (% diet) (Rattus norvegicus [4]; [11]): > 0.5

Structure (SMILES): C#CC(C)(C)NC(=O)c1cc(Cl)cc(Cl)c1 [Propyzamide]
- NOEL (Canidae [5]; duration: 2 years, diet, no effects): 7.5 mg/kg-day
- NOEL (Canidae [6]; duration: 2 years, diet, None Observed): 7.5 mg/kg-day
- NOEL (Rattus norvegicus [7]; duration: 10 days, Sprague-Dawley, active + Negative + Antiandrogenic + anti-androgenic + two studies / first one doses were high but effects observed on AST wt and delayed …): 40 mg/kg-day

Structure (SMILES): CCC(C#N)CC#N (stereo not given) [2-Ethylbutanedinitrile]
- LD0 (Rattus norvegicus [8]): < 500 mg/kg

Structure (SMILES): CCC(=O)O.CCC(=O)O.O=C(Nc1cccc(C2=NCCN2)c1)Nc1cccc(C2=NCCN2)c1 [Imidocarb dipropionate]
- NOEL (Canidae [9]; subchronic, duration: 90 days, capsule, Transient reducting in food intake & histopathology in the liver): 5 mg/kg-day

Structure (SMILES): CO/N=C1\C[C@]2(C[C@@H]3C[C@@H](C/C=C(\C)C[C@@H](C)/C=C/C=C4\CO[C@@H]5[C@H](O)C(C)=C[C@@H](C(=O)O3)[C@]45O)O2)O[C@H](/C(C)=C/C(C)C)[C@H]1C [Moxidectin]
- NOEL (Canidae [9]; subchronic, duration: 90 days, diet, Decreased bodyweight & feed consumption): 0.3 mg/kg-day

Structure (SMILES): N#Cc1c(N)nc(NC2CC2)nc1N [Dicyclanil]
- LOEL (Canidae [9]; [12]): 4.4 mg/kg-day
- NOEL (Canidae [9]; [12]): 0.71 mg/kg-day

Structure (SMILES): CC(C)N(C(=O)SCC(Cl)=C(Cl)Cl)C(C)C [Tri-allate]
- LOAEL (Canidae [5]; [13]): 4.25 mg/kg-day
- NOAEL (Canidae [5]; [13]): 1.27 mg/kg-day
- NOAEL (Canidae [6]; duration: 24 months, diet, Liver: Effects + Spleen: Effects): 1.27 mg/kg-day

Structure (SMILES): CC(C)(C)CC(C)(C)c1ccc(O)cc1 [4-(1,1,3,3-Tetramethylbutyl)phenol]
- LD50 (Oryctolagus sp.): > 2000 mg/kg
- LD50 (Rattus norvegicus [4]; acute, oral): 2200 mg/kg
- LD50 (Rattus norvegicus [4]; acute, oral, Sprague-Dawley): > 2000 mg/kg
- NOAEL (Rattus norvegicus [4]; reproduction developmental, oral, diet, Sprague-Dawley): ≥ 2000 ppm
- NOAEL (Rattus norvegicus [4]; reproduction developmental, oral, diet, Sprague-Dawley, generation: F0): 200 ppm
- NOAEL (Rattus norvegicus [4]; reproduction developmental, oral, diet, Sprague-Dawley, generation: F1): 200 ppm
- LOAEL (Rattus norvegicus [4]; [14]): 28.8 mg/kg-day
- NOAEL (Rattus norvegicus [4]; [14]): 2.88 mg/kg-day
- LEL (Mus musculus [10]): 50 mg/kg-day
- LEL (Rattus norvegicus [7]; duration: 1 days): 200 mg/kg-day and 600 mg/kg-day
- LEL (Rattus norvegicus [7]; duration: 2 days): 50 mg/kg-day
- LEL (Rattus norvegicus [7]; duration: 14 days): 25 mg/kg-day

Structure (SMILES): O=C1c2ccccc2C(=O)N1SC(Cl)(Cl)Cl [Folpet]
- LEL (Canidae [5]; [15]): 60 mg/kg-day
- NOEL (Canidae [5]; [15]): 10 mg/kg-day
- NOEL (Canidae [6]; duration: 1 years, capsule, Blood: Altered chemistry + Whole body: Altered weight gain): 10 mg/kg-day
- NOEL (Rattus norvegicus [7]; duration: 10 days, Sprague-Dawley, inactive + Negative + Negative + neither + decrease in LABC and epididymis at 400 and 800 / decrease in liver and body wt (8% at 200 / 14…): 200 mg/kg-day

Structure (SMILES): N=C(N)c1ccc(N=NNc2ccc(C(=N)N)cc2)cc1 [Diminazene]
- LOEL (Canidae [9]; [16]): 60 mg/kg-day
- NOEL (Canidae [9]; [16]): 20 mg/kg-day

Structure (SMILES): CON(C)C(=O)Nc1ccc(Cl)c(Cl)c1 [Linuron]
- LEL (Canidae [5]; duration: 2 years, diet, abnormal blood pigment): 0.625 mg/kg-day
- LOAEL (Canidae [6]; duration: 2 years, diet, Blood: Hematological effects): 0.625 mg/kg-day
- LOEL (Rattus norvegicus [7]; [17]): 40 mg/kg-day and 100 mg/kg-day
- NOEL (Rattus norvegicus [7]; [17]): 20 mg/kg-day
- NOEL (Rattus norvegicus [7]; duration: 10 days, Sprague-Dawley, inactive + Negative + anti-androgenic + reduced SV and caudal epididymal wt / PPS delayed): 20 mg/kg-day
- LOEL (Rattus norvegicus [7]; [18]): 40 mg/kg-day and 100 mg/kg-day
- NOEL (Rattus norvegicus [7]; [18]): 20 mg/kg-day and 10 mg/kg-day
- NOEL (Rattus norvegicus [7]; duration: 10 days, Wistar, inactive + Negative + anti-androgenic + reduced SV and caudal epididymal wt / PPS delayed): 20 mg/kg-day
- NOEL (Rattus norvegicus [7]; duration: 10 days, wistar, active + Antiandrogenic + anti-androgenic + reduced SV and caudal epididymal wt / PPS delayed): 20 mg/kg-day and 30 mg/kg-day and 10 mg/kg-day

Structure (SMILES): CCCCN(CC)c1c([N+](=O)[O-])cc(C(F)(F)F)cc1[N+](=O)[O-] [Benfluralin]
- LOAEL (Canidae [5]; reduced erythrocyte counts): 125 mg/kg-day
- NOAEL (Canidae [5]; reduced erythrocyte counts): 25 mg/kg-day
- NOAEL (Canidae [6]; duration: 1 years, diet, Erythrocytes: Decreased count): 25 mg/kg-day
- LOEL (Rattus norvegicus [7]; [19]): 400 mg/kg-day and 750 mg/kg-day
- NOEL (Rattus norvegicus [7]; [19]): 100 mg/kg-day and 250 mg/kg-day
